Tested on: Z-138 cells
Experiment: Z-138 Methylation Assay (In Cell Western for symmetric di-methyl arginine and DNA content)
Type: cell-based
Conditions: Homo sapiens, Table A-2, 96 hours, symmetric di-methyl arginine, read-out: ICW EC50
From the text: Z-138 suspension cells were purchased from ATCC (American Type Culture Collection, Manassas, Va.). RPMI/Glutamax medium, penicillin-streptomycin, heat inactivated fetal bovine serum, and D-PBS were purchased from Life Technologies, Grand Island, N.Y., USA. Odyssey blocking buffer, 800CW goat anti-rabbit IgG (H+L) antibody, and Licor Odyssey infrared scanner were purchased from Licor Biosciences, Lincoln, Nebr., USA. Symmetric di-methyl arginine antibody was purchased from EMD Millipore, Billerica, Mass., USA. 16% Paraformaldehyde was purchased from Electron Microscopy Sciences, Hatfield, Pa., USA.
Z-138 suspension cells were maintained in growth medium (RPMI 1640 supplemented with 10% v/v heat inactivated fetal bovine serum and 100 units/mL penicillin-streptomycin) and cultured at 37° C. under 5% CO2.
Cell Treatment, in Cell Western (ICW) for Detection of Symmetric Di-Methyl Arginine and DNA Content.
Z-138 cells were seeded in assay medium at a concentration of 50,000 cells per mL to a 384-well cell culture plate with 50 μL per well. Compound (100 nL) from 384 well source plates was added directly to 384 well cell plate. Plates were incubated at 37° C., 5% CO2 for 96 hours. After four days of incubation, 40 μL of cells from incubated plates were added to poly-D-lysine coated 384 well culture plates (BD Biosciences 356697). Plates were incubated at room temperature for 30 minutes then incubated at 37° C., 5% CO2 for 5 hours. After the incubation, 40 μL per well of 8% paraformaldehyde in PBS (16% paraformaldahyde was diluted to 8% in PBS) was added to each plate and incubated for 30 minutes. Plates were transferred to a Biotek 405 plate washer and washed 5 times with 100 μL per well of wash buffer (1×PBS with 0.1% Triton X-100 (v/v)). Next 30 μL per well of Odyssey blocking buffer were added to each plate and incubated 1 hour at room temperature. Blocking buffer was removed and 20 μL per well of primary antibody was added (symmetric di-methyl arginine diluted 1:100 in Odyssey buffer with 0.1% Tween 20 (v/v)) and plates were incubated overnight (16 hours) at 4° C. Plates were washed 5 times with 100 μL per well of wash buffer. Next 20 μL per well of secondary antibody was added (1:200 800CW goat anti-rabbit IgG (H+L) antibody, 1:1000 DRAQS (Biostatus limited) in Odyssey buffer with 0.1% Tween 20 (v/v)) and incubated for 1 hour at room temperature. The plates were washed 5 times with 100 μL per well wash buffer then 1 time with 100 μL per well of water. Plates were allowed to dry at room temperature then imaged on the Licor Odyssey machine which measures integrated intensity at 700 nm and 800 nm wavelengths. Both 700 and 800 channels were scanned.
First, the ratio for each well was determined by:
Each plate included fourteen control wells of DMSO only treatment (minimum inhibition) as well as fourteen control wells for maximum inhibition treated with 3 μM of a reference compound (Background wells). The average of the ratio values for each control type was calculated and used to determine the percent inhibition for each test well in the plate. Reference compound was serially diluted three-fold in DMSO for a total of nine test concentrations, beginning at 3 μM. Percent inhibition was determined and IC50 curves were generated using triplicate wells per concentration of compound.

| EC50 [nM] | SMILES |
| --- | --- |
| 101 to 1000 | O=C(COc1cccc(F)c1)NCC(O)CN1CCc2ccccc2C1 (stereo not drawn) [Compound A7] |
| 101 to 1000 | N#Cc1ccc(OCC(=O)NCC(O)CN2CCc3ccccc3C2)cc1 (stereo not drawn) [Compound A11] |
| 101 to 1000 | Cc1ccccc1OCC(=O)NCC(O)CN1CCc2ccccc2C1 (stereo not drawn) [Compound A15] |
| 101 to 1000 | O=C(COc1ccccc1F)NCC(O)CN1CCc2ccccc2C1 (stereo not drawn) [Compound A16] |
| 101 to 1000 | COc1ccccc1OCC(=O)NCC(O)CN1CCc2ccccc2C1 (stereo not drawn) [Compound A22] |
| 101 to 1000 | Cc1cccc(OCC(=O)NCC(O)CN2CCc3ccccc3C2)c1 (stereo not drawn) [Compound A26] |
| 101 to 1000 | NC(=O)c1ccccc1OCC(=O)NCC(O)CN1CCc2ccccc2C1 (stereo not drawn) [Compound A29] |
| 101 to 1000 | CC(=O)Nc1cccc(OCC(=O)NCC(O)CN2CCc3ccccc3C2)c1 (stereo not drawn) [Compound A31] |
| 101 to 1000 | NC(=O)c1cccc(OCC(=O)NCC(O)CN2CCc3ccccc3C2)c1 (stereo not drawn) [Compound A34] |
| < 100 | CS(=O)(=O)c1ccccc1OCC(=O)NCC(O)CN1CCc2ccccc2C1 (stereo not drawn) [Compound A37] |
| 101 to 1000 | CC(C)(Oc1cccc2cccnc12)C(=O)NCC(O)CN1CCc2ccccc2C1 (stereo not drawn) [Compound A43] |
| 101 to 1000 | O=C(COc1cccc2ccc(N3CCOCC3)nc12)NCC(O)CN1CCc2ccccc2C1 (stereo not drawn) [Compound A48] |
| 101 to 1000 | O=C(COc1ccccc1N1CCOCC1)NCC(O)CN1CCc2ccccc2C1 (stereo not drawn) [Compound A49] |
| < 100 | O=C(COc1ccccc1-c1cc[nH]n1)NCC(O)CN1CCc2ccccc2C1 (stereo not drawn) [Compound A50] |
| 101 to 1000 | O=C(COc1cccc2c1CCCC2)NCC(O)CN1CCc2ccccc2C1 (stereo not drawn) [Compound A64] |
| 101 to 1000 | O=C(COc1ccccc1-c1cc[nH]n1)NC[C@H](O)CN1CCc2ccccc2C1 [Compound A68] |
| < 100 | C[C@@H](Oc1cccc2cccnc12)C(=O)NC[C@H](O)CN1CCc2ccccc2C1 [Compound A73] |
| 101 to 1000 | CN1CCc2c(cccc2OCC(=O)NCC(O)CN2CCc3ccccc3C2)C1 (stereo not drawn) [Compound A99] |
| < 100 | O=C(COc1cccc2c1OCCO2)NCC(O)CN1CCc2ccccc2C1 (stereo not drawn) [Compound A100] |
| < 100 | CC(=O)N1CCc2c(cccc2OCC(=O)NCC(O)CN2CCc3ccccc3C2)C1 (stereo not drawn) [Compound A101] |
| 101 to 1000 | O=C(COc1ccccc1C1CCNCC1)NCC(O)CN1CCc2ccccc2C1 (stereo not drawn) [Compound A103] |
| 1000 to 10000 | CN(C)c1ccc2cccc(OCC(=O)NC[C@H](O)CN3CCc4ccccc4C3)c2n1 [Compound A104] |

The next lines start with the molecule.

| SMILES | EC50 [nM] |
| --- | --- |
| O=C(COc1cccc2cccnc12)NCC(O)CN1CCc2ccccc2C1 (stereo not drawn) [Compound A6] | < 100 |
| N#Cc1cccc(OCC(=O)NCC(O)CN2CCc3ccccc3C2)c1 (stereo not drawn) [Compound A8] | 101 to 1000 |
| Cc1ccc(OCC(=O)NCC(O)CN2CCc3ccccc3C2)cc1 (stereo not drawn) [Compound A9] | 10000 to 50000 |
| COc1ccc(OCC(=O)NCC(O)CN2CCc3ccccc3C2)cc1 (stereo not drawn) [Compound A12] | 101 to 1000 |
| N#Cc1ccccc1OCC(=O)NCC(O)CN1CCc2ccccc2C1 (stereo not drawn) [Compound A17] | 101 to 1000 |
| O=C(CNc1ccccc1)NCC(O)CN1CCc2ccccc2C1 (stereo not drawn) [Compound A18] | 1000 to 10000 |
| CC(Oc1ccccc1)C(=O)NCC(O)CN1CCc2ccccc2C1 (stereo not drawn) [Compound A19] | 101 to 1000 |
| COc1cccc(OCC(=O)NCC(O)CN2CCc3ccccc3C2)c1 (stereo not drawn) [Compound A20] | 101 to 1000 |
| CC(=O)Nc1ccc(OCC(=O)NCC(O)CN2CCc3ccccc3C2)cc1 (stereo not drawn) [Compound A21] | 101 to 1000 |
| Cn1ncc2ccc(OCC(=O)NCC(O)CN3CCc4ccccc4C3)cc21 (stereo not drawn) [Compound A23] | 101 to 1000 |
| CN(C)c1cccc(OCC(=O)NCC(O)CN2CCc3ccccc3C2)c1 (stereo not drawn) [Compound A27] | 101 to 1000 |
| CS(=O)(=O)Nc1cccc(OCC(=O)NCC(O)CN2CCc3ccccc3C2)c1 (stereo not drawn) [Compound A28] | 101 to 1000 |
| O=C(COc1ccccc1)NC[C@H](O)CN1CCc2ccccc2C1 [Compound A32] | 101 to 1000 |
| CN(C)c1ccc(OCC(=O)NCC(O)CN2CCc3ccccc3C2)cc1 (stereo not drawn) [Compound A35] | 101 to 1000 |
| CC(=O)Nc1ccccc1OCC(=O)NCC(O)CN1CCc2ccccc2C1 (stereo not drawn) [Compound A36] | 101 to 1000 |
| CN(C)c1ccccc1OCC(=O)NCC(O)CN1CCc2ccccc2C1 (stereo not drawn) [Compound A38] | < 100 |
| CC(Oc1cccc2cccnc12)C(=O)NCC(O)CN1CCc2ccccc2C1 (stereo not drawn) [Compound A39] | < 100 |
| O=C(COc1ccccc1C1CCCCC1)NCC(O)CN1CCc2ccccc2C1 (stereo not drawn) [Compound A40] | 101 to 1000 |
| CS(=O)(=O)Nc1ccc(OCC(=O)NCC(O)CN2CCc3ccccc3C2)cc1 (stereo not drawn) [Compound A42] | 101 to 1000 |
| O=C(COc1cccc2cccnc12)NC[C@H](O)CN1CCc2ccccc2C1 [Compound A44] | 101 to 1000 |
| O=C(COc1cccc2cccnc12)NC[C@@H](O)CN1CCc2ccccc2C1 [Compound A45] | < 100 |
| Cn1cnc2cc(OCC(=O)NCC(O)CN3CCc4ccccc4C3)ccc21 (stereo not drawn) [Compound A46] | 101 to 1000 |
| CS(=O)(=O)c1cccc(OCC(=O)NCC(O)CN2CCc3ccccc3C2)c1 (stereo not drawn) [Compound A47] | 101 to 1000 |
| CS(=O)(=O)Nc1ccccc1OCC(=O)NCC(O)CN1CCc2ccccc2C1 (stereo not drawn) [Compound A53] | 101 to 1000 |

| SMILES | EC50 [nM] |
| --- | --- |
| NS(=O)(=O)c1ccccc1OCC(=O)NCC(O)CN1CCc2ccccc2C1 (stereo not drawn) [Compound A65] | 101 to 1000 |
| O=C(COc1cccc2ccccc12)NCC(O)CN1CCc2ccccc2C1 (stereo not drawn) [Compound A66] | 101 to 1000 |
| O=C(COc1ccccc1-c1cc[nH]n1)NC[C@@H](O)CN1CCc2ccccc2C1 [Compound A67] | < 100 |
| O=C(COc1ccc2ncn(C3CCNCC3)c2c1)NCC(O)CN1CCc2ccccc2C1 (stereo not drawn) [Compound A70] | 101 to 1000 |
| CN1CCC(n2cnc3ccc(OCC(=O)NCC(O)CN4CCc5ccccc5C4)cc32)CC1 (stereo not drawn) [Compound A71] | 101 to 1000 |
| C[C@@H](Oc1cccc2cccnc12)C(=O)NC[C@@H](O)CN1CCc2ccccc2C1 [Compound A74] | 101 to 1000 |
| CN1CCC(n2ncc3cc(OCC(=O)NCC(O)CN4CCc5ccccc5C4)ccc32)C1 (stereo not drawn) [Compound A96] | 101 to 1000 |
| COc1ccc2cccc(OCC(=O)NC[C@H](O)CN3CCc4ccccc4C3)c2n1 [Compound A97] | 101 to 1000 |
| COc1ccc2cccc(OCC(=O)NC[C@@H](O)CN3CCc4ccccc4C3)c2n1 [Compound A98] | < 100 |
| CS(=O)(=O)N1CCc2c(cccc2OCC(=O)NCC(O)CN2CCc3ccccc3C2)C1 (stereo not drawn) [Compound A102] | < 100 |
| CN(C)c1ccc2cccc(OCC(=O)NC[C@@H](O)CN3CCc4ccccc4C3)c2n1 [Compound A105] | 101 to 1000 |
| CS(=O)(=O)N1CCN(c2ccccc2OCC(=O)NCC(O)CN2CCc3ccccc3C2)CC1 (stereo not drawn) [Compound A106] | 101 to 1000 |
| O=C(COc1ccccc1S(=O)(=O)N1CCNCC1)NCC(O)CN1CCc2ccccc2C1 (stereo not drawn) [Compound A107] | < 100 |
| CN1CCN(S(=O)(=O)c2ccccc2OCC(=O)NCC(O)CN2CCc3ccccc3C2)CC1 (stereo not drawn) [Compound A108] | 101 to 1000 |
| CN(C)S(=O)(=O)c1ccccc1OCC(=O)NCC(O)CN1CCc2ccccc2C1 (stereo not drawn) [Compound A109] | < 100 |
| O=C(COc1ccccc1S(=O)(=O)N1CCCC1)NCC(O)CN1CCc2ccccc2C1 (stereo not drawn) [Compound A110] | < 100 |
| O=C(COc1ccccc1S(=O)(=O)N1CCC(O)C1)NCC(O)CN1CCc2ccccc2C1 (stereo not drawn) [Compound A111] | < 100 |
| CNC(=O)c1ccccc1OCC(=O)NCC(O)CN1CCc2ccccc2C1 (stereo not drawn) [Compound A112] | 101 to 1000 |
| CN(C)C(=O)c1ccccc1OCC(=O)NCC(O)CN1CCc2ccccc2C1 (stereo not drawn) [Compound A113] | 101 to 1000 |
| CC(Oc1ccccc1S(C)(=O)=O)C(=O)NCC(O)CN1CCc2ccccc2C1 (stereo not drawn) [Compound A114] | 1000 to 10000 |
| O=C(COc1ccccc1C1CCNC1)NCC(O)CN1CCc2ccccc2C1 (stereo not drawn) [Compound A116] | 1000 to 10000 |
| O=C(COc1ccccc1C1CCCNC1)NCC(O)CN1CCc2ccccc2C1 (stereo not drawn) [Compound A117] | 101 to 1000 |
| Cn1cc2c(OCC(=O)NCC(O)CN3CCc4ccccc4C3)cccc2n1 (stereo not drawn) [Compound A118] | 1000 to 10000 |
